Source: patent publication US6534512B1, “Dideoxycarbocyclic nucleosides” (Regents of the University of Minnesota, priority 1988, dated 2003)
Values after ≈ are worked out from the molar mass of the structure shown.

Tests used:
HSV-1 = assay: Activity against HSV-1
[1] = system: normal cells (uninfected); assay: Anti-HIV assay (NCI FCRF, XTT), drug sensitivity of uninfected cells; format: cell-based
From the text: (§1) Compounds of formula I were screened for anti-HIV activity at the National Cancer Institute, Frederick Cancer Research Facility, Frederick, Md. (FCRF). The following are the current screening mode operational procedures utilized at FCRF. The protocol consists of 3 areas, (I) preparation of infected cells and distribution to the test plates, (II) preparation of drug dilution plates and distribution to the test plates, and (III) XTT assay procedure. See D. A. Scudiero et al., “A New Simplified Tetrazolium Assay for Cell Growth and Drug Sensitivity in Culture,” Cancer Res., 48, 4827 (1988).
Cells to be infected (a normal lymphoblastoid cell line which expresses CD4) are placed in 50 ml conical centrifuge tubes and treated for 1 hr with 1-2 μg/ml of polybrene at 37° C. The cells are then pelleted for 8 min. ) at 1200 rpm. HIV virus, diluted 1:10 in media (RMP1-1640, 10% human serum or 15% fetal calf serum (FCS), with IL-2, for ATH8 cells only, and antibiotics) is added to provided an MOI of 0.001. Medium alone is added to virus-free control cells. […]
Using a multi-channel pipettor with 6 microtips, 100 μl of each drug dilution is transferred to the test plate which already contains 100 μl of medium plus cells. […] Test plates are incubated at 37° C. in Air-CO2 or 7-14 days or until virus controls are lysed as determined macroscopically. […]

H9/HTLV-IIIB = assay: Earlier anti-HIV assay at the Southern Research Institute; format: cell-based; conditions: MT-2 cells cultured with H9/HTLV-IIIB
Protocol: An earlier assay carried out at the Southern Research Institute yielded a TI50 of about 200 when MT-2 cells were cultured with H9/HTLV-IIIB.

HIV [2] = assay: Anti-HIV assay (NCI FCRF, XTT microculture tetrazolium), infected cells; format: cell-based; conditions: for anti-HIV activity: in vitro
From the text: as §1
Cells to be infected (a normal lymphoblastoid cell line which expresses CD4) are placed in 50 ml conical centrifuge tubes and treated for 1 hr with 1-2 μg/ml of polybrene at 37° C. The cells are then pelleted for 8 min. ) at 1200 rpm. HIV virus, diluted 1:10 in media (RMP1-1640, 10% human serum or 15% fetal calf serum (FCS), with IL-2, for ATH8 cells only, and antibiotics) is added to provided an MOI of 0.001. Medium alone is added to virus-free control cells. Assuming an infectious virus titer of 10^−4, an MOI of 0.001 represents […] infectious virus particles per 10,000 cells. About 500,000 cells/tube are exposed to 400 μl of the virus dilution. The resultant mixture is incubated for 1 hr at 37° C. in Air-CO2. The infected or uninfected cells are diluted to give 1×10^−4 (with human serum or 2×10^−4 with fetal calf serum) cells/100 μl.
Infected or uninfected cells (100 μl) are distributed to appropriate wells of a 96 well, U-bottom, microtiter plate. Each compound dilution is tested in duplicate with infected cells. Uninfected cells are examined for drug sensitivity in a single well for each dilution of compound. Drug-free control cells, infected and uninfected, are run in triplicate. Wells B2 through G2 served as reagent controls and received medium only. The plates are incubated at 37° C. in Air-CO2 until the drug is added.
Dilution plates (flat bottom 96 well, microtiter plates) are treated overnight with phosphate buffered saline (PBS) or media containing at least 1% FCS or 1% human serum (depending on the medium used in the test), beginning the day before assay. This “blocking” procedure is used to limit the adsorption of drug to the microtiter tray during the dilution process. The wells are filled completely with the blocking solution and allowed to stand at room temperature in a humidified chamber in a hood.
The dilution process is begun by first diluting the test compound 1:20. Blocked, dilution plates are prepared by flicking out the blocking solution and blotting dry on sterile gauze. All wells of each plate are then filled with 225 μl of the appropriate medium using a Cetus liquid handling system. Twenty-five microliters (25 μl) of each 1:20 diluted compound is then manually added to row A of a blocked and filled dilution plate. Four compounds, sufficient to supply two test plates, are added per dilution plate. The four compounds are then serially diluted ten-fold from row A through row H using the Cetus liquid handling system. The starting dilution of each compound in row A is, at this point, 1:200. The dilution plates are kept on ice until needed.
Using a multi-channel pipettor with 6 microtips, 100 μl of each drug dilution is transferred to the test plate which already contains 100 μl of medium plus cells. The final dilution, in the test plate, starts at 1:400 (wells B4 through G4). This dilution (to 0.25% DMSO) prevents the DMSO vehicle from interfering with cell growth. Drug-free, infected or uninfected cells (wells B3 through G3) and reagent controls (B2 through G2) receive medium alone. The final two compounds are then transferred from wells H7 through H12 to a second test plate using the same procedure. Test plates are incubated at 37° C. in Air-CO2 or 7-14 days or until virus controls are lysed as determined macroscopically.
1. […]

HIV [3] = system: HIV; design: TI50 against HIV in vitro: unit not given beside the values; conditions: background; cited from earlier work
[4] = system: P-388 mouse leukemia cells; assay: P-388 mouse leukemia cell culture cytotoxicity assay; format: cell-based; conditions: cultured P-388 leukemia cells
From the text: The ED50 cytotoxicity concentrations determined for analogs 7a, 9a, 10a, 16a, 16b, 17a and 17b in the P-388 mouse leukemia cell culture assay are given in Table II.

HSV-2 = conditions: background; cited from earlier work

Structure (SMILES)	anti-HIV activity (HIV [2])	cytotoxicity / activity against P-388 leukemia cells [4]	further results
Nc1nc(O)c2ncn(C3C=CC(CO)C3)c2n1 (racemic) [Compound 14a, (±)-(1α,4α)-4-(2-Amino-6-hydroxy-9H-purin-9-yl)-2-cyclopentenyl carbinol]	strongly inhibits		activity against HSV-1 (HSV-1): active; inhibitory concentration (IC50) with respect to normal cells ([1]; calculated from FIG. 2 data): about 100 μg/ml; TI50 (H9/HTLV-IIIB): about 200; effective concentration (EC50) with respect to infected cells (HIV [2]; calculated from FIG. 2 data): about 0.15 μg/ml; TI50, general range (HIV [2]; varied with the infected cell line used): 200-400
Cc1cn(C2CC(CO)C(N=[N+]=[N-])C2)c(=O)[nH]c1=O (stereo not drawn) [carbocyclic analog of AZT]			activity against HIV (HIV [3]): inactive
Nc1ncnc2c1ncn2C1C=CC(CO)C1 (racemic) [Compound 9a, (±)-(1α,4α)-4-(6-Amino-9H-purin-9-yl)-2-cyclopentenyl-carbinol]	active	cytotoxic	
OCC1C=CC(n2cnc3c(S)ncnc32)C1 (racemic) [Compound 10a, (±)-(1α,4α)-4-(6-Mercapto-9H-purin-9-yl)-2-cyclopentenyl-carbinol]	active	cytotoxic	
Nc1nc(O)c2nnn(C3C=CC(CO)C3)c2n1 (racemic) [Compound 17a, (±)-(1α,4α)-4-(5-Amino-7-hydroxy-3H-1,2,3-triazolo[4,5-d]-pyrimidin-3-yl)-2-cyclopentenyl carbinol]		cytotoxic	
Nc1nc(Cl)c2nnn(C3C=CC(CO)C3)c2n1 (racemic) [Compound 16a, (±)-(1α,4α)-4-(5-Amino-7-chloro-3H-1,2,3-triazolo[4,5d]-pyrimidin-3-yl)-2-cyclopentenyl carbinol]		cytotoxic	
Nc1ncnc2c1ncn2[C@@H]1C[C@H](CO)[C@@H](O)[C@@H]1O [Cyclaridine]			activity against HSV-2 (HSV-2): highly active; TI50 against HIV in vitro (HIV [3]): 10
Nc1nc(O)c2ncn([C@H]3C=C[C@@H](CO)C3)c2n1 [(−)14a, (1S,4R)-4-(2-Amino-6-hydroxy-9H-Purin-9-yl)-2-cyclopentenyl Carbinol]	highly active		IC50 ([1]; Homo sapiens, CCRF-CEM, CEM cells): 189 µg/mL (≈ 764 µM)
Nc1nc(N)c2nnn(C3C=CC(CO)C3)c2n1 (racemic) [Compound 18a, (±)-(1α,4α)-4-(5,7-Diamino-3H-1,2,3-triazolo[4,5-d]pyrimidin-3-yl)-2-cyclopentenyl carbinol]		cytotoxic	
CC(=O)OCC1C=CC(n2cnc3c(O)nc(N)nc32)C1 (stereo not drawn) [acetate ester (R′=Ac) of 14a, (1α,4α)-4-(2-Amino-6-hydroxy-9H-purin-9-yl)-2-cyclopentenyl Acetoxycarbinol]	active		inhibition of HIV (HIV [2]; at 6 μg/ml): 28%
OCC1C=CC(n2cnc3c(Cl)ncnc32)C1 (racemic) [Compound 7a, (±)-(1α,4α)-4-(6-chloro-9H-purin-9-yl)-2-cyclopentenyl-carbinol]	active	cytotoxic	
Nc1nc(N)c2ncn([C@H]3C=C[C@@H](CO)C3)c2n1 (racemic) [Compound 15a, (±)-(1α,4α)-4-(2,6-Diamino-9H-purin-9-yl)-2-cyclopentenyl-carbinol]	active		
Nc1nc(Cl)c2ncn([C@H]3C=C[C@@H](CO)C3)c2n1 (racemic) [Compound 13a, (±)-(1α,4α)-4-(2-Amino-6-chloro-9H-purin-9-yl)-2-cyclopentenyl carbinol]	active		
